Measured values taken from patent US10294202B2, “Pyrrolidinones as herbicides” (FMC Corporation, priority 2013, dated 2019).

Assays:
corn = experiment: Test C pre-/postemergence herbicide test; type: in vivo, Zea mays
Outline: (§1)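 Greenhouse pots; formulation = non-phytotoxic solvent mix + surfactant. PRE onto seeds in loam:sand; POST at 1–4 leaves (2–18 cm) in peat moss/vermiculite medium. Read-out: visual % control vs untreated, day 13–15.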

barnyardgrass = experiment: Test C pre-/postemergence herbicide test; type: in vivo, Echinochloa crus-galli
Outline: as §1

velvetleaf = experiment: Test C pre-/postemergence herbicide test; type: in vivo, Abutilon theophrasti
Outline: as §1

galium = experiment: Test C pre-/postemergence herbicide test; type: in vivo, Galium aparine; conditions: Preemergence; for Plant response rating, Galium: 125 g ai/ha; for Plant response rating (scale of 0 to 100), Galium: 250 g ai/ha
Outline: as §1

nutsedge, yellow = experiment: Test C pre-/postemergence herbicide test; type: in vivo, Cyperus esculentus
Outline: as §1

morningglory = experiment: Test C pre-/postemergence herbicide test; type: in vivo, Ipomoea coccinea
Outline: as §1

pigweed = experiment: Test A pre-/postemergence herbicide test; type: in vivo, Amaranthus retroflexus
Outline: (§2)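 Greenhouse pot test with pre- and postemergence application of surfactant-containing solvent formulations. Postemergence plants were 2–10 cm, one- to two-leaf stage. Response scored visually after ~10 days, 0 (no effect) to 100 (complete control).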

ryegrass, Italian = experiment: Test C pre-/postemergence herbicide test; type: in vivo, Lolium multiflorum
Outline: as §1

wheat = experiment: Test A pre-/postemergence herbicide test; type: in vivo, Triticum aestivum; conditions: Postemergence
Outline: as §2

blackgrass = experiment: Test C pre-/postemergence herbicide test; type: in vivo, Alopecurus myosuroides
Outline: as §1

[1] = Postemergence, 31 g ai/ha, scale 0 to 100 (0 no effect, 100 complete control)
[2] = Postemergence, 62 g ai/ha, scale 0 (no effect) to 100 (complete control)
[3] = Postemergence, 125 g ai/ha, scale 0 to 100 (0 no effect, 100 complete control)
[4] = Postemergence, 250 g ai/ha, scale 0 to 100 (0 no effect, 100 complete control)
[5] = Preemergence, 31 g ai/ha, scale 0 to 100, 0 is no effect and 100 is complete control
[6] = Preemergence, 62 g ai/ha, scale 0 to 100 (0 no effect, 100 complete control)
[7] = Preemergence, 125 g ai/ha, scale 0 to 100 (0 no effect, 100 complete control)
[8] = 31 g ai/ha, scale 0 to 100, 0 is no effect and 100 is complete control
[9] = 62 g ai/ha, scale 0 to 100 (0 no effect, 100 complete control)
[10] = scale 0 to 100 (0 no effect, 100 complete control)
[11] = Postemergence, 125 g ai/ha, visual rating on 0 to 100 scale (0 no effect, 100 complete control), approx. 10 days
[12] = Postemergence, 500 g ai/ha, 0 to 100 scale (0 no effect, 100 complete control)
[13] = Preemergence, 125 g ai/ha, 0 to 100 scale where 0 is no effect and 100 is complete control
[14] = Preemergence, 500 g ai/ha, visual rating on 0 to 100 scale (0 no effect, 100 complete control)
[15] = 125 g ai/ha, visual rating on 0 to 100 scale (0 no effect, 100 complete control), approx. 10 days
[16] = 500 g ai/ha, 0 to 100 scale (0 no effect, 100 complete control)

SMILES: CN1CC(c2cccc(C(F)(F)F)c2)C(C(=O)Nc2cccc(F)c2F)C1=O (stereo not drawn) [Compound 305]
- Plant response rating, Corn (corn; [1]): 0
- Plant response rating, Corn (corn; [2]): 5
- Plant response rating, Corn (corn; [3]): 40
- Plant response rating, Corn (corn; [4]): 45
- Corn plant response rating (corn; [5]): 65
- Corn plant response rating (corn; [6]): 75
- Plant response rating, Corn (corn; [7]): 75
- Plant response rating (scale of 0 to 100), Corn (corn; Preemergence, 250 g ai/ha): 80
- Plant response rating, Barnyardgrass (barnyardgrass; [1]): 20
- Plant response rating, Barnyardgrass (barnyardgrass; [2]): 55
- Plant response rating, Barnyardgrass (barnyardgrass; [3]): 70
- Plant response rating, Barnyardgrass (barnyardgrass; [4]): 80
- Barnyardgrass plant response rating (barnyardgrass; [5]): 90
- Barnyardgrass plant response rating (barnyardgrass; [6]): 95
- Plant response rating, Barnyardgrass (barnyardgrass; [7]): 95
- Plant response rating (scale of 0 to 100; 0 is no effect, 100 is complete control), Barnyardgrass (barnyardgrass; Preemergence, 250 g ai/ha): 98
- Plant response rating, Velvetleaf (velvetleaf; [1]): 10
- Plant response rating, Velvetleaf (velvetleaf; [2]): 40
- Plant response rating, Velvetleaf (velvetleaf; [3]): 40
- Plant response rating, Velvetleaf (velvetleaf; [4]): 65
- Velvetleaf plant response rating (velvetleaf; [5]): 25
- Velvetleaf plant response rating (velvetleaf; [6]): 30
- Plant response rating, Velvetleaf (velvetleaf; [7]): 55
- Plant response rating (scale of 0 to 100), Velvetleaf (velvetleaf; Preemergence, 250 g ai/ha): 55
- Galium plant response rating (galium; [8]): 80
- Galium plant response rating (galium; [9]): 80
- Plant response rating, Galium (galium; [10]): 90
- Plant response rating (scale of 0 to 100), Galium (galium): 90
- Plant response rating, Nutsedge, Yellow (nutsedge, yellow; [1]): 0
- Plant response rating, Nutsedge, Yellow (nutsedge, yellow; [2]): 0
- Plant response rating, Nutsedge, Yellow (nutsedge, yellow; [3]): 0
- Plant response rating, Nutsedge, Yellow (nutsedge, yellow; [4]): 0
- Nutsedge, Yellow plant response rating (nutsedge, yellow; [5]): 0
- Nutsedge, Yellow plant response rating (nutsedge, yellow; [6]): 0
- Plant response rating, Nutsedge, Yellow (nutsedge, yellow; [7]): 0
- Plant response rating (scale of 0 to 100), Nutsedge, Yellow (nutsedge, yellow; Preemergence, 250 g ai/ha): 100
- Plant response rating, Morningglory (morningglory; [1]): 25
- Plant response rating, Morningglory (morningglory; [2]): 20
- Plant response rating, Morningglory (morningglory; [3]): 75
- Plant response rating, Morningglory (morningglory; [4]): 20
- Morningglory plant response rating (morningglory; [5]): 0
- Morningglory plant response rating (morningglory; [6]): 30
- Plant response rating, Morningglory (morningglory; [7]): 40
- Plant response rating (scale of 0 to 100), Morningglory (morningglory; Preemergence, 250 g ai/ha): 65
- Plant response rating, Pigweed (pigweed; [11]): 60
- Plant response rating, Pigweed (pigweed; [12]): 70
- Plant response rating, Pigweed (pigweed; [13]): 0
- Pigweed plant response rating (pigweed; [14]): 40
- Plant response rating, Ryegrass, Italian (ryegrass, Italian; [1]): 0
- Plant response rating, Ryegrass, Italian (ryegrass, Italian; [2]): 0
- Plant response rating, Ryegrass, Italian (ryegrass, Italian; [3]): 0
- Plant response rating, Ryegrass, Italian (ryegrass, Italian; [4]): 45
- Ryegrass, Italian plant response rating (ryegrass, Italian; [5]): 15
- Ryegrass, Italian plant response rating (ryegrass, Italian; [6]): 50
- Plant response rating, Ryegrass, Italian (ryegrass, Italian; [7]): 50
- Plant response rating (scale of 0 to 100), Ryegrass, Italian (ryegrass, Italian; Preemergence, 250 g ai/ha): 80
- Plant response rating, Wheat (wheat; [15]): 60
- Plant response rating, Wheat (wheat; [16]): 70
- Plant response rating, Blackgrass (blackgrass; [1]): 0
- Plant response rating, Blackgrass (blackgrass; [2]): 0
- Plant response rating, Blackgrass (blackgrass; [3]): 30
- Plant response rating, Blackgrass (blackgrass; [4]): 10
- Blackgrass plant response rating (blackgrass; [5]): 60
- Blackgrass plant response rating (blackgrass; [6]): 75
- Plant response rating, Blackgrass (blackgrass; [7]): 70
- Plant response rating (scale of 0 to 100), Blackgrass (blackgrass; Preemergence, 250 g ai/ha): 90

SMILES: CN1CC(c2ccc(C(F)(F)F)cc2)C(C(=O)Nc2cccc(F)c2F)C1=O (stereo not drawn) [Compound 306]
- Plant response rating, Corn (corn; [1]): 0
- Plant response rating, Corn (corn; [2]): 0
- Plant response rating, Corn (corn; [3]): 0
- Plant response rating, Corn (corn; [4]): 20
- Corn plant response rating (corn; [5]): 40
- Corn plant response rating (corn; [6]): 60
- Plant response rating, Corn (corn; [7]): 80
- Plant response rating (scale of 0 to 100), Corn (corn; Preemergence, 250 g ai/ha): 75
- Plant response rating, Barnyardgrass (barnyardgrass; [1]): 0
- Plant response rating, Barnyardgrass (barnyardgrass; [2]): 45
- Plant response rating, Barnyardgrass (barnyardgrass; [3]): 85
- Plant response rating, Barnyardgrass (barnyardgrass; [4]): 85
- Barnyardgrass plant response rating (barnyardgrass; [5]): 90
- Barnyardgrass plant response rating (barnyardgrass; [6]): 90
- Plant response rating, Barnyardgrass (barnyardgrass; [7]): 90
- Plant response rating (scale of 0 to 100; 0 is no effect, 100 is complete control), Barnyardgrass (barnyardgrass; Preemergence, 250 g ai/ha): 95
- Plant response rating, Velvetleaf (velvetleaf; [1]): 0
- Plant response rating, Velvetleaf (velvetleaf; [2]): 10
- Plant response rating, Velvetleaf (velvetleaf; [3]): 50
- Plant response rating, Velvetleaf (velvetleaf; [4]): 65
- Velvetleaf plant response rating (velvetleaf; [6]): 60
- Plant response rating, Velvetleaf (velvetleaf; [7]): 60
- Plant response rating (scale of 0 to 100), Velvetleaf (velvetleaf; Preemergence, 250 g ai/ha): 65
- Galium plant response rating (galium; [8]): 90
- Galium plant response rating (galium; [9]): 60
- Plant response rating, Galium (galium; [10]): 90
- Plant response rating (scale of 0 to 100), Galium (galium): 90
- Plant response rating, Nutsedge, Yellow (nutsedge, yellow; [1]): 0
- Plant response rating, Nutsedge, Yellow (nutsedge, yellow; [2]): 0
- Plant response rating, Nutsedge, Yellow (nutsedge, yellow; [4]): 0
- Nutsedge, Yellow plant response rating (nutsedge, yellow; [5]): 0
- Nutsedge, Yellow plant response rating (nutsedge, yellow; [6]): 0
- Plant response rating, Nutsedge, Yellow (nutsedge, yellow; [7]): 0
- Plant response rating (scale of 0 to 100), Nutsedge, Yellow (nutsedge, yellow; Preemergence, 250 g ai/ha): 10
- Plant response rating, Morningglory (morningglory; [1]): 0
- Plant response rating, Morningglory (morningglory; [2]): 35
- Plant response rating, Morningglory (morningglory; [3]): 65
- Plant response rating, Morningglory (morningglory; [4]): 5
- Morningglory plant response rating (morningglory; [5]): 0
- Morningglory plant response rating (morningglory; [6]): 35
- Plant response rating, Morningglory (morningglory; [7]): 35
- Plant response rating (scale of 0 to 100), Morningglory (morningglory; Preemergence, 250 g ai/ha): 35
- Plant response rating, Pigweed (pigweed; [11]): 70
- Plant response rating, Pigweed (pigweed; [12]): 80
- Plant response rating, Pigweed (pigweed; [13]): 80
- Pigweed plant response rating (pigweed; [14]): 90
- Plant response rating, Ryegrass, Italian (ryegrass, Italian; [1]): 0
- Plant response rating, Ryegrass, Italian (ryegrass, Italian; [2]): 0
- Plant response rating, Ryegrass, Italian (ryegrass, Italian; [3]): 5
- Plant response rating, Ryegrass, Italian (ryegrass, Italian; [4]): 20
- Ryegrass, Italian plant response rating (ryegrass, Italian; [6]): 40
- Plant response rating, Ryegrass, Italian (ryegrass, Italian; [7]): 55
- Plant response rating (scale of 0 to 100), Ryegrass, Italian (ryegrass, Italian; Preemergence, 250 g ai/ha): 70
- Plant response rating, Wheat (wheat; [15]): 50
- Plant response rating, Wheat (wheat; [16]): 60
- Plant response rating, Blackgrass (blackgrass; [1]): 0
- Plant response rating, Blackgrass (blackgrass; [2]): 0
- Plant response rating, Blackgrass (blackgrass; [3]): 5
- Plant response rating, Blackgrass (blackgrass; [4]): 5
- Blackgrass plant response rating (blackgrass; [5]): 0
- Blackgrass plant response rating (blackgrass; [6]): 30
- Plant response rating, Blackgrass (blackgrass; [7]): 60
- Plant response rating (scale of 0 to 100), Blackgrass (blackgrass; Preemergence, 250 g ai/ha): 90
